Where two headings read alike, the source gives them in different places.

One test has as its target T1, human DGKα (Homo sapiens, UniProt P23743).
T1 construct: TVMV protease cleavage site (C); Hexa-His (C); made in house; host or cells: Sf9 insect cells (baculovirus, Bac-to-Bac)
Nature of the test: DGKα LIPGLO assay (extruded liposome substrate), in vitro DGK inhibition. Particulars: read-out: DGKa LIPGLO IC50. It is filed as biochemical.

In the next test the target is T2, human DGKζ (Homo sapiens, UniProt Q13574).
T2 construct: TVMV protease cleavage site (C); Hexa-His (C); made in house; host or cells: Sf9 insect cells (baculovirus, Bac-to-Bac)
T2 sequence (Q13574 with tags, fused parts or gaps isoform Q13574-4): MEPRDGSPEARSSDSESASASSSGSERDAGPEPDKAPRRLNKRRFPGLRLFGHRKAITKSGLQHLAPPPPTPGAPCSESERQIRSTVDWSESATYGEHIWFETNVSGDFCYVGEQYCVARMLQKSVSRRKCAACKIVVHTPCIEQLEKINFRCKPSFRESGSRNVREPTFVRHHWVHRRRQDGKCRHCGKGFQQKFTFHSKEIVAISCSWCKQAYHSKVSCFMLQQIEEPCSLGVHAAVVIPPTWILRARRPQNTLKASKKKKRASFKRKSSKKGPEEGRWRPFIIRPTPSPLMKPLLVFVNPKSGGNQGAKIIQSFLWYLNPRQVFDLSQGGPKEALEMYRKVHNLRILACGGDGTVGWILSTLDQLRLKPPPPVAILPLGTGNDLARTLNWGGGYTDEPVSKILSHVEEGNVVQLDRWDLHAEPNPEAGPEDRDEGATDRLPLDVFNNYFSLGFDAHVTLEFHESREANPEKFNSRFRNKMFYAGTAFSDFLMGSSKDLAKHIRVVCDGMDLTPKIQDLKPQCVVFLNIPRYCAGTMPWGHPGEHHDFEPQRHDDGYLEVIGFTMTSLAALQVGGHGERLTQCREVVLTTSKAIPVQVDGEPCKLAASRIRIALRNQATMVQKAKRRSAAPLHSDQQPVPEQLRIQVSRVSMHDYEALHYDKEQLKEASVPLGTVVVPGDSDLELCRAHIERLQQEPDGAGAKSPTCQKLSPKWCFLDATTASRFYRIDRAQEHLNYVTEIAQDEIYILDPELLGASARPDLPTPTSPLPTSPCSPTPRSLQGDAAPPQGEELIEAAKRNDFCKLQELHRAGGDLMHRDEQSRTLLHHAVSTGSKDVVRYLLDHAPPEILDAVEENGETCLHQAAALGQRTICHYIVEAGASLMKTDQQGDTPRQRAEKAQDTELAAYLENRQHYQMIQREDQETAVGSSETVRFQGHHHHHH
The experiment in a line: DGKζ LIPGLO assay (extruded liposome substrate), in vitro DGK inhibition. It is filed as biochemical. Particulars: read-out: DGKz LIPGLO IC50.

T1 sequence (P23743 with tags, fused parts or gaps): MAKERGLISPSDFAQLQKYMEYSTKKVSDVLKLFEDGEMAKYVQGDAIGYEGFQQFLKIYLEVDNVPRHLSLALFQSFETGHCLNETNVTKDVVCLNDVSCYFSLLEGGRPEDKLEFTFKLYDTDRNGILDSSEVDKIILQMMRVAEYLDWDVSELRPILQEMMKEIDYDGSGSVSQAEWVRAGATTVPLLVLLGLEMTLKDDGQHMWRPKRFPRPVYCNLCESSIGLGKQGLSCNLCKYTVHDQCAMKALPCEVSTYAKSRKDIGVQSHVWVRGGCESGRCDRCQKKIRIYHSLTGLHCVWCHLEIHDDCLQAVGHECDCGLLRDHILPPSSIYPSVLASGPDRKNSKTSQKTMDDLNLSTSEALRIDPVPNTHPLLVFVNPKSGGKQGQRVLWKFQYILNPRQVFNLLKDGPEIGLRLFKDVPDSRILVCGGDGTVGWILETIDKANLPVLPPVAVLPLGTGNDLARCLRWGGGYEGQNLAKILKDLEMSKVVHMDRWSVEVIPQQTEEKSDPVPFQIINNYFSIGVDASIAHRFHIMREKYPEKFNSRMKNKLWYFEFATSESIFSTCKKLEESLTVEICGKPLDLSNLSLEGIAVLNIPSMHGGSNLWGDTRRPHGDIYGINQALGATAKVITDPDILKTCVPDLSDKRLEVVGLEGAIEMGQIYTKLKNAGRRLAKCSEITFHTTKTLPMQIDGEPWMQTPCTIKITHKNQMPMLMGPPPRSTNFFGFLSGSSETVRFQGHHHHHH

For the molecule `C[C@@H]1CN(c2c(C#N)c(=O)n(C)c3ccc(C#N)nc23)CCN1C(c1ccc(Cl)cc1)c1ncccc1F` (stereo partly drawn) [Example 913], the IC50 (usually the midpoint of a concentration-inhibition curve) was 2.1 µM at human DGKα (DGKα liposome (LIPGLO) assay) and 5.5 µM at human DGKζ (DGKζ liposome (LIPGLO) assay).
Taken in the same sequence, the figures for `Cc1ccc(C(c2ccc(Cl)cc2)N2C[C@H](C)N(c3c(C#N)c(=O)n(C)c4ccc(C#N)nc34)C[C@H]2C)cc1` (stereo partly drawn) [Example 826] were 43 µM and 3.1 µM.
Taken in the same sequence, the figures for `CC(c1cccc(C(F)(F)F)c1)N1CCN(c2c(C#N)c(=O)n(C)c3ccc(C#N)nc23)C[C@H]1C` (single isomer, unassigned) [Example 972] were 20 µM and 15 µM.
Taken in the same sequence, the figures for `Cc1ccc(CN2CCN(c3c(C#N)c(=O)n(C)c4ccc(C#N)nc34)C[C@H]2C)cc1` [Example 1007] were 0.42 µM and 3.9 µM.
In the case of `C[C@@H]1CN(c2c(C#N)c(=O)n(C)c3ccc(C#N)nc23)[C@@H](C)CN1C(c1ccc(F)cc1)c1cc(C2CC2)on1` (single isomer, unassigned) [Example 869], the figures for the IC50 on human DGKα (DGKα liposome (LIPGLO) assay) and on human DGKζ (DGKζ liposome (LIPGLO) assay) were 17 µM and 14 µM, respectively.
On to `Cc1ncc(C(c2ccc(Cl)cc2)N2C[C@H](C)N(c3cc(=O)n(C)c4ccc(C#N)nc34)C[C@H]2C)cn1` (stereo partly drawn) [Example 385, 8-((2S,5R)-4-((4-chlorophenyl) (2-methylpyrimidin-5-yl)methyl)-2,5-dimethylpiperazin-1-yl)-5-methyl-6-oxo-5,6-dihydro-1,5-naphthyridine-2-carbonitrile], for which the IC50 on human DGKα (liposome (LIPGLO) assay) turned out to be 3.3 µM; on human DGKζ (liposome (LIPGLO) assay), 6.3 µM.
As to `CC[C@@H]1CN(c2cc(=O)n(C)c3ccc(C#N)nc23)[C@@H](C)CN1C(C)c1ccc(OC(F)(F)F)cc1F` (single isomer, unassigned) [Example 1096], the IC50 was 2.2 µM at human DGKα (liposome (LIPGLO) assay) and 1.4 µM on human DGKζ (liposome (LIPGLO) assay).
Regarding `CC[C@@H]1CN(c2cc(=O)n(C)c3ccc(C#N)nc23)[C@@H](C)CN1C(C)c1ccc(F)cc1F` (single isomer, unassigned) [Example 1088], the IC50 amounted to 3.4 µM on human DGKα (liposome (LIPGLO) assay) and 4.9 µM on human DGKζ (liposome (LIPGLO) assay).
With `COC(=O)c1ccc(C(C)N2CCN(c3c(C#N)c(=O)n(C)c4ccc(C#N)nc34)C[C@H]2C)cc1` (stereo partly drawn) [Example 980], the IC50 at human DGKα (DGKα liposome (LIPGLO) assay) was found to be 5.7 µM; at human DGKζ (DGKζ liposome (LIPGLO) assay), 13 µM.
With `CC(c1cc(F)c(F)c(F)c1)N1C[C@H](C)N(c2cc(=O)n(C)c3ccc(C#N)nc23)C[C@H]1C` (single isomer, unassigned) [Example 1240], the IC50 at human DGKα (liposome (LIPGLO) assay) was determined as 3.5 µM; on human DGKζ (liposome (LIPGLO) assay), 0.15 µM.
In the case of `CC(c1ccc(Br)cc1)N1C[C@H](C)N(c2c(C#N)c(=O)n(C)c3ccc(C#N)nc23)C[C@H]1C` (single isomer, unassigned) [Example 789], the IC50 at human DGKα (DGKα liposome (LIPGLO) assay) turned out to be 1.2 µM; on human DGKζ (DGKζ liposome (LIPGLO) assay), 7 µM.
For the molecule `Cn1c(=O)c(C#N)c(N2CCN(C(c3ccc(F)cc3)c3ccc(F)cc3)C(C(N)=O)C2)c2nc(C#N)ccc21` (single isomer, unassigned) [Example 58, 1-(bis (4-fluorophenyl)methyl)-4-(3,6-dicyano-1-methyl-2-oxo-1,2-dihydro-1,5-naphthyridin-4-yl)piperazine-2-carboxamide], the IC50 on human DGKα (liposome (LIPGLO) assay) stood at 7.2 µM; on human DGKζ (liposome (LIPGLO) assay), 180 µM.
Regarding `Cc1cc(OC(F)(F)F)ccc1CN1C[C@H](C)N(c2cc(=O)n(C)c3ccc(C#N)nc23)C[C@H]1C` [Example 608], the IC50 came out at 1.6 µM at human DGKα (liposome (LIPGLO) assay) and 9.2 µM on human DGKζ (liposome (LIPGLO) assay).
Take `CC[C@H]1CN(C(C)c2ccc(OC(F)(F)F)cc2)[C@H](COC)CN1c1cc(=O)n(C)c2ccc(C#N)nc12` (single isomer, unassigned) [Example 1408]: the results for the IC50 at human DGKα (liposome (LIPGLO) assay) and at human DGKζ (liposome (LIPGLO) assay) were 0.019 µM and 0.083 µM, respectively.
With `CC[C@@H]1CN(c2cc(=O)n(C)c3ccc(C#N)nc23)[C@@H](C)CN1C(C)c1ccc(C(F)(F)F)cc1` (single isomer, unassigned) [Example 1094], the IC50 at human DGKα (liposome (LIPGLO) assay) came out at 0.46 µM; at human DGKζ (liposome (LIPGLO) assay), 2.1 µM.
In the same order, the values of `CCC(c1ccc(F)c(F)c1)N1C[C@H](C)N(c2cc(=O)n(C)c3ccc(C#N)nc23)C[C@H]1C` (single isomer, unassigned) [Example 411] are 22 µM and 19 µM.
`Cc1nc2ccc(C(C)N3C[C@H](C)N(c4cc(=O)n(C)c5ccc(C#N)nc45)C[C@H]3C)cc2s1` (single isomer, unassigned) [Example 1263]: the IC50 on human DGKα (liposome (LIPGLO) assay) worked out at 0.95 µM; at human DGKζ (liposome (LIPGLO) assay) it was 0.15 µM.
In the same order, the values of `CC[C@H]1CN(C(c2ccc(C)cc2)c2ccc(Cl)cc2)[C@H](C)CN1c1cc(=O)n(C)c2ccc(C#N)nc12` (single isomer, unassigned) [Example 1121] are 1.8 µM and 2.7 µM.
Taken in the same sequence, the figures for `Cn1c(=O)cc(N2CCN(C(c3ccc(F)cc3)c3ccc(F)cc3)CC2C(N)=O)c2nc(C#N)ccc21` (single isomer, unassigned) [Example 141, 4-(bis(4-fluorophenyl)methyl)-1-(6-cyano-1-methyl-2-oxo-1,2-dihydro-1,5-naphthyridin-4-yl)piperazine-2-carboxamide] were 240 µM and 200 µM.
Take `C[C@@H]1CN(c2c(C#N)c(=O)n(C)c3ccc(C#N)nc23)CCN1C(c1ccc(F)cc1)c1cccc2c1OC(C)(C)C2` (single isomer, unassigned) [Example 934]: the IC50 on human DGKα (DGKα liposome (LIPGLO) assay) amounted to 8.6 µM; at human DGKζ (DGKζ liposome (LIPGLO) assay), 5.4 µM.
Turning to `COC(=O)C1CN(C(c2ccc(F)cc2)c2ccc(F)cc2)CCN1c1c(Br)c(=O)n(C)c2ccc(C#N)nc12` (stereo not drawn) [Example 162, Methyl 4-(bis(4-fluorophenyl)methyl)-1-(3-bromo-6-cyano-1-methyl-2-oxo-1,2-dihydro-1,5-naphthyridin-4-yl)piperazine-2-carboxylate], the figures for the IC50 at human DGKα (liposome (LIPGLO) assay) and at human DGKζ (liposome (LIPGLO) assay) were 1.9 µM and 2.4 µM, respectively.
Taken in the same sequence, the figures for `CC[C@@H]1CN(c2cc(=O)n(C)c3ccc(C#N)nc23)[C@@H](C)CN1C(C)c1c(F)cc(F)cc1F` (single isomer, unassigned) [Example 1090] were 4.1 µM and 1.8 µM.
In the case of `C[C@@H]1CN(c2cc(=O)n(C)c3ccc(C#N)nc23)[C@@H](C)CN1C(c1ccc(F)cc1)c1cn(C)cn1` (stereo partly drawn) [Example 708], the IC50 came to 1 µM at human DGKα (liposome (LIPGLO) assay) and 37 µM on human DGKζ (liposome (LIPGLO) assay).
Taken in the same sequence, the figures for `C[C@@H]1CN(c2c(C#N)c(=O)n(C)c3ccc(C#N)nc23)CCN1C(c1ccc(F)cc1)c1ccncn1` (single isomer, unassigned) [Example 312] were 0.71 µM and 3.4 µM.
For the molecule `Cc1ccc(C(c2ccc(Cl)cn2)N2CCN(c3c(C#N)c(=O)n(C)c4ccc(C#N)nc34)C[C@H]2C)cc1` (single isomer, unassigned) [Example 937], the IC50 at human DGKα (DGKα liposome (LIPGLO) assay) was found to be 0.34 µM; on human DGKζ (DGKζ liposome (LIPGLO) assay) it was 1.1 µM.
Take `C[C@@H]1CN(c2cc(=O)n(C)c3ccc(C#N)nc23)[C@@H](C)CN1C(CF)c1ccc(F)cc1` (mixture of isomers) [Example 556, 8-[(2S,5R)-4-[2-fluoro-1-(4-fluorophenyl)ethyl]-2,5-dimethylpiperazin-1-yl]-5-methyl-6-oxo-5,6-dihydro-1,5-naphthyridine-2-carbonitrile]: the IC50 is 2.6 µM at human DGKα (liposome (LIPGLO) assay) and 6 µM on human DGKζ (liposome (LIPGLO) assay).
In the same order, the values of `C[C@@H]1CN(c2cc(=O)n(C)c3ccc(C#N)nc23)[C@@H](C)CN1C(c1ccc(F)cc1)c1cncc(F)c1` (single isomer, unassigned) [Example 386] are 2.3 µM and 4.6 µM.
Taken in the same sequence, the figures for `C[C@@H]1CN(c2cc(=O)n(C)c3ccc(C#N)nc23)[C@@H](C)CN1C(c1ccc(OC(F)(F)F)cc1F)C1CC1` (stereo partly drawn) [Example 481, 8-((2S,5R)-4-(cyclopropyl(2-fluoro-4-(trifluoromethoxy)phenyl)methyl)-2,5-dimethylpiperazin-1-yl)-5-methyl-6-oxo-5,6-dihydro-1,5-naphthyridine-2-carbonitrile] were 1.4 µM and 1.8 µM.
Take `C[C@@H]1CN(c2cc(=O)n(C)c3ccc(C#N)nc23)[C@@H](C)CN1C(c1ccc(F)cc1)c1nc(C(C)(C)C)co1` (single isomer, unassigned) [Example 778]: the IC50 is 0.15 µM at human DGKα (DGKα liposome (LIPGLO) assay) and 0.34 µM on human DGKζ (DGKζ liposome (LIPGLO) assay).
For the molecule `Cc1c(F)ccc(C(C)N2C[C@H](C)N(c3cc(=O)n(C)c4ccc(C#N)nc34)C[C@H]2C)c1Cl` (single isomer, unassigned) [Example 487], the figures for the IC50 at human DGKα (liposome (LIPGLO) assay) and at human DGKζ (liposome (LIPGLO) assay) were 41 µM and 11 µM, respectively.
In the same order, the values of `C[C@@H]1CN(c2cc(=O)n(C)c3ccc(C#N)nc23)[C@@H](C)CN1C(c1ccc(Cl)cc1)c1ccc2c(c1)OC(F)(F)O2` (single isomer, unassigned) [Example 656] are 23 µM and 4 µM.
On to `CSCC(c1ccc(F)cc1)N1C[C@H](C)N(c2cc(=O)n(C)c3ccc(C#N)nc23)C[C@H]1C` (single isomer, unassigned) [Example 1319], for which the IC50 is 0.099 µM on human DGKα (liposome (LIPGLO) assay) and 0.61 µM on human DGKζ (liposome (LIPGLO) assay).
In the same order, the values of `CC(c1c(F)cc(F)cc1F)N1C[C@H](C)N(c2cc(=O)n(C)c3ccc(C#N)nc23)C[C@H]1C` (single isomer, unassigned) [Example 488] are 15 µM and 11 µM.
Turning to `CCOC[C@@H]1CN(c2cc(=O)n(C)c3ccc(C#N)nc23)[C@@H](C)CN1C(C)c1ccc(OC(F)(F)F)cc1` (single isomer, unassigned) [Example 1397], the IC50 was found to be 1.3 µM on human DGKα (liposome (LIPGLO) assay) and 0.054 µM on human DGKζ (liposome (LIPGLO) assay).
Consider `C[C@@H]1CN(c2cc(=O)n(C)c3ccc(C#N)nc23)[C@@H](C)CN1C(c1ccc(Cl)cc1)c1ccncn1` (single isomer, unassigned) [Example 397], for which the results for the IC50 at human DGKα (liposome (LIPGLO) assay) and on human DGKζ (liposome (LIPGLO) assay) were 1.8 µM and 16 µM, respectively.
`CCC(c1ccc(OC(C)(C)C)cc1)N1C[C@H](C)N(c2cc(=O)n(C)c3ccc(C#N)nc23)C[C@H]1C` (single isomer, unassigned) [Example 1444]: the IC50 was 10 µM on human DGKα (liposome (LIPGLO) assay) and 0.48 µM on human DGKζ (liposome (LIPGLO) assay).

The values are drawn from patent US10669272B2, “Substituted naphthyridinone compounds useful as T cell activators” (BRISTOL-MYERS SQUIBB COMPANY, priority 2018, dated 2020).
